This passage reports pIC50 and IC50 results from ChEMBL document CHEMBL1152487, “3D-QSAR studies of HDACs inhibitors using pharmacophore-based alignment” (Eur J Med Chem, 2009).

By pIC50 is commonly meant the negative decadic logarithm of the IC50, by convention in mol/L. Read a low pIC50 as a high IC50. By IC50 is commonly meant the midpoint of a concentration-inhibition curve.

Structures are written as SMILES.

This assay can be described thus: Inhibition of HDAC.
With `O=C(CCCCCCC(=O)c1cccnc1)NO`, the pIC50 is listed as 6.82.

As to `O=C(/C=C/c1ccc(NS(=O)(=O)c2ccc(Cl)cc2Cl)cc1)NO`, the IC50 worked out at 300 nM and the pIC50 came out at 6.52.

As to `O=C(CCc1ccc(NS(=O)(=O)c2ccccc2)cc1)NO`, the IC50 stood at 100 nM and the pIC50 is recorded as 7.

The compound `O=C(CCCCCCC(=O)c1ccc(C(F)(F)F)cc1)NO` yielded a pIC50 of 7.35.

`O=C(Cc1ccc(NS(=O)(=O)c2ccccc2)cc1)NO` yielded an IC50 of 1000 nM and a pIC50 of 6.

Compound `CC(=O)c1cc(/C=C/C(=O)NO)n(C)c1` displayed an IC50 of 11200 nM and a pIC50 of 4.95.

Take `O=C(CCCCCN1C(=O)c2ccccc2C1=O)NO`: inhibition was half-maximal at 103 nM (IC50) and the pIC50 was found to be 6.99.

Take `O=C(/C=C/c1ccc(NS(=O)(=O)c2ccc(Cl)c(Cl)c2)cc1)NO`: the IC50 turned out to be 100 nM and the pIC50 stood at 7.

`Cn1cc(C(=O)Cl)cc1/C=C/C(=O)NO` had an IC50 of 9650 nM and a pIC50 of 5.01.

In turn, `O=C(CCCCCCC(=O)c1ccc(N2CCN(c3ccccc3)CC2)cc1)NO` came in with a negative-log IC50 (pIC50) of 8.35.

In turn, `Cn1cc(C=O)cc1/C=C/C(=O)NO` showed an IC50 of 12200 nM and a pIC50 of 4.92.

The compound `O=C(CCCCC/C=C/c1ccc2ccccc2c1)NO` had a pIC50 of 8.22.

In the case of `O=C(CCCCCCCc1ccc2ccccc2c1)NO`, the pIC50 amounted to 7.6.

`Cn1cc(C=O)cc1CCC(=O)NO` had an IC50 of 52600 nM and a pIC50 of 4.28.

With `Cc1ccc(S(=O)(=O)Nc2ccc(/C=C/C(=O)NO)cc2)cc1`, half-maximal inhibition (IC50) required 300 nM and the pIC50 is 6.52.

Consider `COc1ccc(S(=O)(=O)Nc2ccc(/C=C/C(=O)NO)cc2)cc1`, for which half-maximal inhibition (IC50) was put at 60 nM and the pIC50 came to 7.22.
